Measured values: the CheMixHub viscosity set
“And” between values parts separate entries of the source, which are not always exact repeats. Equal values may be shown once. ± gives the uncertainty stated by the source. Each block holds one molecule with its values, some of them ahead of it.

viscosity (293.15 K, 101.2 kPa): 0.7298 ± 0.033 mPa·s
viscosity (298.15 K, 100 kPa): 0.69 ± 0.08 mPa·s
viscosity (298.15 K, 101 kPa): 0.68 ± 0.006 mPa·s
viscosity (298.15 K, 101.2 kPa): 0.6819 ± 0.031 mPa·s
viscosity (303.15 K, 101 kPa): 0.6416 ± 0.0044 mPa·s
viscosity (303.15 K, 101.2 kPa): 0.6389 ± 0.029 mPa·s
viscosity (303.15 K, 101.3 kPa): 0.6407 ± 0.0044 mPa·s
viscosity (303.15 K, 101.33 kPa): 0.639 ± 0.0085 mPa·s
viscosity (308.15 K, 100 kPa): 0.61 ± 0.07 mPa·s
viscosity (313.15 K, 100 kPa): 0.568 ± 0.013 mPa·s
viscosity (313.15 K, 101.2 kPa): 0.5641 ± 0.025 mPa·s
viscosity (318.15 K, 100 kPa): 0.54 ± 0.07 mPa·s
viscosity (318.15 K, 101.2 kPa): 0.5314 ± 0.024 mPa·s
Compound: CC1CCCCC1
viscosity (293.15 K, 100 kPa): 0.736 ± 0.017 mPa·s (2×) and 0.73 ± 0.09 mPa·s
viscosity (303.15 K, 100 kPa): 0.65 ± 0.08 mPa·s and 0.639 ± 0.014 mPa·s
viscosity (323.15 K, 100 kPa): 0.51 ± 0.06 mPa·s and 0.501 ± 0.011 mPa·s

viscosity (323.15 K, 100 kPa): 0.835 ± 0.01 mPa·s
Compound: CCCCC1CCCCC1

viscosity (298.15 K, 101 kPa): 0.6412 ± 0.014 mPa·s
viscosity (303.15 K, 101 kPa): 0.5825 ± 0.013 mPa·s
viscosity (308.15 K, 101 kPa): 0.5323 ± 0.011 mPa·s
viscosity (313.15 K, 101 kPa): 0.4915 ± 0.01 mPa·s
viscosity (318.15 K, 101 kPa): 0.4586 ± 0.0098 mPa·s
Compound: C=C(C)C(=O)OCC

viscosity (298.15 K, 100 kPa): 4.861 ± 0.1 mPa·s
viscosity (323.15 K, 100 kPa): 2.156 ± 0.046 mPa·s
Compound: OCC(F)(F)C(F)F

viscosity (293.15 K, 101.32 kPa): 2.29 ± 0.018 mPa·s
viscosity (298.15 K, 101.3 kPa): 2.012 ± 0.049 mPa·s
viscosity (298.15 K, 101.33 kPa): 1.936 ± 0.013 mPa·s
viscosity (303 K, 101 kPa): 1.49 ± 0.14 mPa·s
viscosity (303.15 K, 100 kPa): 1.73 ± 0.17 mPa·s
viscosity (308.15 K, 101.3 kPa): 1.485 ± 0.037 mPa·s
viscosity (308.15 K, 101.33 kPa): 1.494 ± 0.01 mPa·s
viscosity (313 K, 101 kPa): 1.13 ± 0.11 mPa·s
viscosity (313.15 K, 101.3 kPa): 1.322 ± 0.011 mPa·s
viscosity (313.15 K, 101.33 kPa): 1.427 ± 0.014 mPa·s and 1 ± 0.018 mPa·s
viscosity (318.15 K, 100 kPa): 1.171 ± 0.12 mPa·s
viscosity (318.15 K, 101 kPa): 1.228 ± 0.026 mPa·s
viscosity (323.15 K, 100 kPa): 0.995 ± 0.041 mPa·s
Compound: CC(C)O
viscosity (303.15 K, 101.33 kPa): 1.878 ± 0.019 mPa·s and 1.731 ± 0.011 mPa·s and 1.4 ± 0.024 mPa·s
viscosity (308.15 K, 100 kPa): 1.579 ± 0.048 mPa·s and 1.49 ± 0.15 mPa·s
viscosity (313.15 K, 101 kPa): 1.319 ± 0.033 mPa·s and 1.281 ± 0.06 mPa·s and 1.4 ± 0.03 mPa·s
viscosity (323.15 K, 101 kPa): 1.063 ± 0.027 mPa·s and 1.083 ± 0.023 mPa·s
viscosity (323.15 K, 101.33 kPa): 1.105 ± 0.011 mPa·s and 1.056 ± 0.064 mPa·s

viscosity (298.16 K, 101 kPa): 5.89 ± 0.05 mPa·s
Compound: CCNC(C)=O

viscosity (298.15 K, 100 kPa): 57.4 ± 1.8 mPa·s and 62.81 ± 3.2 mPa·s
viscosity (308.15 K, 100 kPa): 37.36 ± 2 mPa·s and 40.56 ± 2.1 mPa·s
viscosity (318.15 K, 100 kPa): 25.8 ± 1.4 mPa·s
Compound: CCCC[n+]1ccn(C)c1.N#C[S-]

viscosity (303.15 K, 101 kPa): 2.44 ± 0.028 mPa·s
Compound: COC(=O)c1ccccc1O

The remaining lines, values behind:

Compound: CCCCCCCCCBr
viscosity (297.75 K, 101 kPa): 1.922 ± 0.042 mPa·s
viscosity (303.55 K, 101 kPa): 1.721 ± 0.037 mPa·s
viscosity (313.65 K, 101 kPa): 1.458 ± 0.032 mPa·s

Compound: CCCCCN
viscosity (293.15 K, 101.33 kPa): 0.656 ± 0.004 mPa·s
viscosity (298.15 K, 101.33 kPa): 0.609 ± 0.004 mPa·s
viscosity (303.15 K, 101 kPa): 0.5809 ± 0.005 mPa·s
viscosity (303.15 K, 101.33 kPa): 0.563 ± 0.003 mPa·s
viscosity (308.15 K, 101.33 kPa): 0.523 ± 0.003 mPa·s
viscosity (313.15 K, 101.33 kPa): 0.484 ± 0.003 mPa·s
viscosity (318.15 K, 101.33 kPa): 0.457 ± 0.002 mPa·s

Compound: CNS(C)(=O)=O
viscosity (303.15 K, 101.33 kPa): 8.242 ± 0.21 mPa·s

Compound: CCCC[N+]1(C)CCCC1.N#C[S-]
viscosity (298.15 K, 101 kPa): 109.5 ± 23 mPa·s
viscosity (308.15 K, 101 kPa): 70.36 ± 6.5 mPa·s
viscosity (318.15 K, 101 kPa): 47.79 ± 3 mPa·s

Compound: CCS(=O)CC
viscosity (298.15 K, 101 kPa): 2.32 ± 0.05 mPa·s
viscosity (303.15 K, 101 kPa): 2.1 ± 0.04 mPa·s
viscosity (308.15 K, 101 kPa): 1.88 ± 0.04 mPa·s
viscosity (313.15 K, 101 kPa): 1.74 ± 0.04 mPa·s
viscosity (318.15 K, 101 kPa): 1.59 ± 0.03 mPa·s
viscosity (323.15 K, 101 kPa): 1.31 ± 0.03 mPa·s

Compound: CCCCCl
viscosity (298.15 K, 101 kPa): 0.428 mPa·s
viscosity (318.15 K, 101 kPa): 0.356 mPa·s
viscosity (323.15 K, 101 kPa): 0.34 mPa·s
